“Also recorded” adds a separate entry of the source. Read-outs that look alike come from different tables or passages of the source.
Key:
[1] = biological target: T1, stromelysin (catalytic domain) (Homo sapiens, UniProt P08254); assay: ESI-MS detection of noncovalent complexes and competition experiments with stromelysin; type: binding; details: for specificity of association (no greater than 1:1 complex): ESI-MS; for competition of two ligands for the same binding site: pairwise ESI-MS experiment, ternary complex present or absent; for competitive / non-competitive binder or non-binder: ESI-MS competition experiments, S1′ site, same binding site as 4-phenylpyridine
T1 construct: The catalytic domain of stromelysin was prepared in accordance with well-known known procedures; made in house
Description: FIGS. 7A-7E are ligands that are known to bind in the S1′ site on stromelysin. […] The relative dissociation constants for each for each ligand were measured to optimize the amide. Competition experiments were also performed to assure that each ligand bound in the same binding site as 4-phenylpyridine. [drawing 41]
Acetohydroxamic acid was used as the ligand for the first binding site of stromelysin. It has been reported that complexation of zinc with acetohydroxamic acid prevents autocatalytic degradation of the protein.
The ESI-MS measurements were recorded on a Perkin Elmer Sciex API III mass spectrometer. Samples were introduced via […] i.d. fused silica capillary from a 50 μL syringe using a Harvard Apparatus Model 22-syringe pump at a flow rate of 1.500 μL/min. The orifice potential was set between 55 and 65V, and the interface heater was at 56° C. Mass spectra were obtained by averaging a sufficient number of scans to obtain adequate signal to noise.
The sample was analyzed by ESI-MS.
The catalytic domain of stromelysin was prepared in accordance with well-known known procedures. […] The stromelysin used for this study was in a solution of 20 mM Tris buffer, 5 mM CaCl2, 0.02% NaN3 at a pH of 7.5 and at a concentration of either 19.6 mg/mL or 21.7 mg/mL. Acetohydroxamic acid was used for the zinc-binding site.
The second step in the design process was the identification of a second ligand that binds to the target stromelysin at a site different from the binding site of acetohydroxamic acid. This may be accomplished by screening compounds for their ability to bind stromelysin in the presence of saturating amounts of acetohydroxamic acid.
The next step in the design process was to construct a ternary complex of the target stromelysin, the first ligand and the second ligand. This was accomplished by exposing the stromelysin target to the two ligands under conditions that result in complex formation.

PTP1b = biological target: T2, PTP1b (Homo sapiens, UniProt P18031); assay: chromagenic substrate assay of PTP1b function; type: biochemical; details: titration curves, FIG. 4
T2 sequence (P18031 1-435): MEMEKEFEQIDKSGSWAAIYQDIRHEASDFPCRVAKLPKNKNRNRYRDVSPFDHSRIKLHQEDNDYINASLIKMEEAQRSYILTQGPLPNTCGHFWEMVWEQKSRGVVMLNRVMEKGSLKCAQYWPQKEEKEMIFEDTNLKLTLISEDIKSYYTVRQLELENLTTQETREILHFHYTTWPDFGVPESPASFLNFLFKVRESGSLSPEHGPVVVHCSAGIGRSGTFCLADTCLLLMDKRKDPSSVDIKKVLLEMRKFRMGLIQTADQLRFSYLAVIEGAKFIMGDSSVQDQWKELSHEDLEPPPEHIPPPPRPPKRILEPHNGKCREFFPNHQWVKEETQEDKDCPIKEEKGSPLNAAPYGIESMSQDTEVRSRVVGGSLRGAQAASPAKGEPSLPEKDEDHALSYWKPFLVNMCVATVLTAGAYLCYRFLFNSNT
Description: FIG. 4 is a graph of titration curves used to determine the IC50 of the squaric acid fragment 8A and moniliformin.
(§1) The candidate target binding ligands shown below were tested by mass spectrometry in a manner similar to Example 1 to determine whether any of the fragments bound specifically to the target biomolecule, protein tyrosine phosphatase 1b (PTP1b), observed 1:1 noncovalent complex. Fragment molecules were chosen based on either their ability to mimic the stabilized transition state of PTP1b with a tyrosine phosphate ester or based on their known or suspected ability to inhibit cysteine proteases and the homology or similarities in the active sites PTP1b and cysteine proteases. The transition state mimics included in the library are derivatives of moniliformin and deltic acid. Each of these compounds contain a planar arrangement of oxygen atoms around and electrophilic center, similar to the planar arrangement of oxygen atoms around an electrophilic phosphorous in the stabilized transition state complex of phosphotyrosine and PTP1b. Also contained in the library were various examples of some fragment molecules containing functional groups known or suspected to interact with an active site cysteine of cysteine proteases. Included in this example are aldehydes, α-ketoacids, boronic acids, and […]. Other fragment molecules could contain functional groups such as α-ketoesters, sulfonyl fluorides, haloketones, azabenzenes, and disulfides and other fragment molecules that contain functional groups known or suspected to react with mercaptans. […] The ability of these fragments to block the function of PTP1b was determined by a chromagenic substrate assay.

[2] = biological target: T3, protein tyrosine phosphatase 1b (PTP1b) (Homo sapiens, UniProt P18031); assay: ESI-MS detection of 1:1 noncovalent complex with PTP1b; type: binding; details: mass spectrometry; for formation of specific complex with PTP1b: 1:1 noncovalent complex
T3 sequence (P18031 1-435): T2 sequence (P18031 1-435)
Description: as §1

T1 sequence (P08254 100-272 limits assumed): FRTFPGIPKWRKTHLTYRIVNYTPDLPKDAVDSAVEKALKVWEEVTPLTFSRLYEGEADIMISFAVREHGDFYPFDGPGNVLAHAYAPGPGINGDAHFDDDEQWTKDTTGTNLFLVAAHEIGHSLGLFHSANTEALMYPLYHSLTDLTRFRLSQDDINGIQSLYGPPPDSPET

Structure (SMILES) | specificity of association (no greater than 1:1 complex) [1] | competition of two ligands for the same binding site [1] | further results
CC(=O)NO [acetohydroxamic acid] | specific | do not compete for the same binding site on a protein | –
COc1ccc(C(=O)NCc2ccccc2)cc1 [Ligand 7G] | – | – | competitive / non-competitive binder or non-binder [1]: competitive binders
N#Cc1ccc(-c2ccc(O)cc2)cc1 [4-(4′-cyanophenyl)-phenol] | specific | do not compete for the same binding site on a protein | –
O=c1cc(O)c1=O [moniliformin] | – | – | IC50 (PTP1b; read-out: IC50): 12 µM
COc1ccc(C(=O)Nc2ccccc2)cc1 [4-methoxy-N-phenylbenzamide] | specific | compete for the same binding site on the protein | –
c1ccc(-c2ccncc2)cc1 [4-phenylpyridine] | specific; also recorded: bind to the protein specifically | – | –
c1ccc(-c2ccncc2)cc1 [Ligand 7B] | – | – | competitive / non-competitive binder or non-binder [1]: non-competitive binders
O=c1c(O)c(-c2ccccc2)c1=O [Compound 8A] | – | – | formation of specific complex with PTP1b [2]: formed specific complexes with PTP1b; Kd ([2]; read-out: binding constant (Kd)): 25 µM; IC50 (PTP1b; read-out: IC50): 60 µM
O=CCCc1ccccc1 [Compound 8D] | – | – | formation of specific complex with PTP1b [2]: formed specific complexes with PTP1b; IC50 (PTP1b): did not have the ability to block function
N#Cc1ccc(NC(=O)Cc2ccccc2)cc1 [N-(4-cyanophenyl)-2-phenylacetamide] | bind to the protein specifically | do not compete for the same binding site on the protein | –

— patent US20020172967A1, “Identification of non-covalent complexes by mass spectrometry” (priority 2001, published 2002)
